Reference: patent US20230085307A1, “PYRIDAZINONE COMPOUND AND HERBICIDE” (NISSAN CHEMICAL CORPORATION, priority 2019, published 2023)

Assays:
[1] = system: redroot pigweed; test: Test Example 4: herbicidal effect by soil treatment (Table 19, symbol N); format: in vivo, redroot pigweed (Amaranthus retroflexus); conditions: amount of applied herbicide 320 g/ha
Method in brief: (§1)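 Step 1: sow seeds in sterilized diluvial soil, cover ~1.5 cm. Step 2: spray diluted emulsion onto soil surface at predetermined rate. Step 3: greenhouse, 25–30° C, three weeks. Step 4: grade effect on each plant by earlier criteria.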

[2] = system: green foxtail; test: Test Example 5: herbicidal effect by foliage application, plastic box (Table 20, symbol G); format: in vivo, green foxtail (Setaria viridis); conditions: 320 g/ha, foliage application after 14-day growth, evaluated three weeks after application
Method in brief: (§2)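 Foliar spray test: emulsion formulation diluted in water to a set application rate, sprayed onto 14-day-old plants raised in diluvial soil at 25° C to 30° C under glass. Both herbicidal effect and crop effect rated visually three weeks later.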

[3] = system: Italian ryegrass; test: Test Example 4: herbicidal effect by soil treatment (Table 19, symbol K); format: in vivo, Italian ryegrass (Lolium multiflorum); conditions: amount of applied herbicide 320 g/ha
Method in brief: as §1

[4] = system: southern crabgrass; test: Test Example 5: herbicidal effect by foliage application, plastic box (Table 20, symbol F); format: in vivo, southern crabgrass (Digitaria ciliaris); conditions: 320 g/ha, foliage application after 14-day growth, evaluated three weeks after application
Method in brief: as §2

[5] = system: southern crabgrass; test: Test Example 4: herbicidal effect by soil treatment (Table 19, symbol F); format: in vivo, southern crabgrass (Digitaria ciliaris); conditions: amount of applied herbicide 320 g/ha
Method in brief: as §1

[6] = system: Italian ryegrass; test: Test Example 5: herbicidal effect by foliage application, plastic box (Table 20, symbol K); format: in vivo, Italian ryegrass (Lolium multiflorum); conditions: 320 g/ha, foliage application after 14-day growth, evaluated three weeks after application
Method in brief: as §2

[7] = system: wild oat; test: Test Example 5: herbicidal effect by foliage application, plastic box (Table 20, symbol I); format: in vivo, wild oat (Avena fatua); conditions: 320 g/ha, foliage application after 14-day growth, evaluated three weeks after application
Method in brief: as §2

[8] = system: redroot pigweed; test: Test Example 5: herbicidal effect by foliage application, plastic box (Table 20, symbol N); format: in vivo, redroot pigweed (Amaranthus retroflexus); conditions: 320 g/ha, foliage application after 14-day growth, evaluated three weeks after application
Method in brief: as §2

[9] = system: oval-leafed pondweed; test: Test Example 1: herbicidal activity, application before weed generation under submerged conditions (Table 16, symbol C); format: in vivo, oval-leafed pondweed (Monochoria vaginalis); conditions: amount of applied herbicide 320 g/ha
Method in brief: (§3)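 Submerged Wagner pots (alluvial soil, 4 cm water) sown with weed seeds and planted with 2.5-leaf rice seedlings; emulsifiable concentrate diluted in water applied to water surface on sowing day. Held in greenhouse at 25-30 °C; injury scored 0-5 by herbicidal rate after three weeks.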

[10] = system: persian speedwell; test: Test Example 4: herbicidal effect by soil treatment (Table 19, symbol R); format: in vivo, Persian speedwell (Veronica persica); conditions: amount of applied herbicide 320 g/ha
Method in brief: as §1

[11] = system: green foxtail; test: Test Example 4: herbicidal effect by soil treatment (Table 19, symbol G); format: in vivo, green foxtail (Setaria viridis); conditions: amount of applied herbicide 320 g/ha
Method in brief: as §1

[12] = system: blackgrass; test: Test Example 5: herbicidal effect by foliage application, plastic box (Table 20, symbol J); format: in vivo, blackgrass (Alopecurus myosuroides); conditions: 320 g/ha, foliage application after 14-day growth, evaluated three weeks after application
Method in brief: as §2

[13] = system: rice flat sedge; test: Test Example 3: herbicidal effect by foliage application, Wagner pot (Table 18, symbol E); format: in vivo, rice flat sedge (Cyperus iria); conditions: 320 g/ha
Method in brief: (§4)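 Plants were sown in alluvial soil held under 0.1–0.5 cm standing water and grown 14 days in a greenhouse at 25–30 °C. An emulsifiable formulation, water-diluted to the set dose, was then sprayed onto the foliage, and effects were scored three weeks later using previously defined criteria.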

[14] = system: persian speedwell; test: Test Example 5: herbicidal effect by foliage application, plastic box (Table 20, symbol R); format: in vivo, Persian speedwell (Veronica persica); conditions: 320 g/ha, foliage application after 14-day growth, evaluated three weeks after application
Method in brief: as §2

[15] = system: velvetleaf; test: Test Example 4: herbicidal effect by soil treatment (Table 19, symbol M); format: in vivo, velvetleaf (Abutilon theophrasti); conditions: amount of applied herbicide 320 g/ha
Method in brief: as §1

[16] = system: barnyard grass; test: Test Example 5: herbicidal effect by foliage application, plastic box (Table 20, symbol H); format: in vivo, barnyard grass (Echinochloa crus-galli); conditions: 320 g/ha, foliage application after 14-day growth, evaluated three weeks after application
Method in brief: as §2

[17] = system: late watergrass; test: Test Example 1: herbicidal activity, application before weed generation under submerged conditions (Table 16, symbol A); format: in vivo, late watergrass (Echinochloa oryzicola); conditions: amount of applied herbicide 320 g/ha
Method in brief: as §3

[18] = system: blackgrass; test: Test Example 4: herbicidal effect by soil treatment (Table 19, symbol J); format: in vivo, blackgrass (Alopecurus myosuroides); conditions: amount of applied herbicide 320 g/ha
Method in brief: as §1

[19] = system: lambsquarters; test: Test Example 4: herbicidal effect by soil treatment (Table 19, symbol O); format: in vivo, lambsquarters (Chenopodium album); conditions: amount of applied herbicide 320 g/ha
Method in brief: as §1

[20] = system: windgrass; test: Test Example 4: herbicidal effect by soil treatment (Table 19, symbol L); format: in vivo, windgrass (Apera spica-venti); conditions: amount of applied herbicide 320 g/ha
Method in brief: as §1

[21] = system: windgrass; test: Test Example 5: herbicidal effect by foliage application, plastic box (Table 20, symbol L); format: in vivo, windgrass (Apera spica-venti); conditions: 320 g/ha, foliage application after 14-day growth, evaluated three weeks after application
Method in brief: as §2

[22] = system: velvetleaf; test: Test Example 5: herbicidal effect by foliage application, plastic box (Table 20, symbol M); format: in vivo, velvetleaf (Abutilon theophrasti); conditions: 320 g/ha, foliage application after 14-day growth, evaluated three weeks after application
Method in brief: as §2

[23] = system: barnyard grass; test: Test Example 3: herbicidal effect by foliage application, Wagner pot (Table 18, symbol H); format: in vivo, barnyard grass (Echinochloa crus-galli); conditions: 320 g/ha
Method in brief: as §4

[24] = system: Chinese sprangletop; test: Test Example 3: herbicidal effect by foliage application, Wagner pot (Table 18, symbol D); format: in vivo, chinese sprangletop (Leptochloa chinensis); conditions: 320 g/ha
Method in brief: as §4

[25] = system: chickweed; test: Test Example 4: herbicidal effect by soil treatment (Table 19, symbol P); format: in vivo, common chickweed (Stellaria media); conditions: amount of applied herbicide 320 g/ha
Method in brief: as §1

[26] = system: Japanese bulrush; test: Test Example 1: herbicidal activity, application before weed generation under submerged conditions (Table 16, symbol B); format: in vivo, Japanese bulrush (Schoenoplectus juncoides); conditions: amount of applied herbicide 320 g/ha
Method in brief: as §3

[27] = system: wild oat; test: Test Example 4: herbicidal effect by soil treatment (Table 19, symbol I); format: in vivo, wild oat (Avena fatua); conditions: amount of applied herbicide 320 g/ha
Method in brief: as §1

[28] = system: lambsquarters; test: Test Example 5: herbicidal effect by foliage application, plastic box (Table 20, symbol O); format: in vivo, lambsquarters (Chenopodium album); conditions: 320 g/ha, foliage application after 14-day growth, evaluated three weeks after application
Method in brief: as §2

[29] = system: chickweed; test: Test Example 5: herbicidal effect by foliage application, plastic box (Table 20, symbol P); format: in vivo, common chickweed (Stellaria media); conditions: 320 g/ha, foliage application after 14-day growth, evaluated three weeks after application
Method in brief: as §2

[30] = system: barnyard grass; test: Test Example 4: herbicidal effect by soil treatment (Table 19, symbol H); format: in vivo, barnyard grass (Echinochloa crus-galli); conditions: amount of applied herbicide 320 g/ha
Method in brief: as §1

**Q.** With `CCOc1ccccc1-c1sc2c(F)cccc2c1-c1c(O)c(C)nn(C)c1=O` [4-007] as the compound, how does the “Herbicidal effect by soil treatment, N: redroot pigweed” value [1] read?
**A.** Its value is 0 (Herbicidal rate of 5% or less (almost no effect)).

**Q.** And the “herbicidal effect on G: green foxtail (evaluation grade 0-5)” value [2]?
**A.** The value was 5 (Herbicidal rate of 90% or more (almost completely withered)).

**Q.** And the “Herbicidal effect by soil treatment, K: Italian ryegrass” value [3]?
**A.** Its value is 0 (Herbicidal rate of 5% or less (almost no effect)).

**Q.** And the “herbicidal effect on F: southern crabgrass (evaluation grade 0-5)” value [4]?
**A.** Its value is 3 (Herbicidal rate of 40% or more and less than 70%).

**Q.** What about the “Herbicidal effect by soil treatment, F: southern crabgrass” value [5] of the same compound?
**A.** Its value is 0 (Herbicidal rate of 5% or less (almost no effect)).

**Q.** And the “herbicidal effect on K: Italian ryegrass (evaluation grade 0-5)” value [6]?
**A.** Its value is 4 (Herbicidal rate of 70% or more and less than 90%).

**Q.** What about the “herbicidal effect on I: wild oat (evaluation grade 0-5)” value [7] of the same compound?
**A.** The value was 2 (Herbicidal rate of 20% or more and less than 40%).

**Q.** What about the “herbicidal effect on N: redroot pigweed (evaluation grade 0-5)” value [8] of the same compound?
**A.** Its value is 3 (Herbicidal rate of 40% or more and less than 70%).

**Q.** And the “Herbicidal effect, C: oval-leafed pondweed” value [9]?
**A.** The value was 0 (Herbicidal rate of 5% or less (almost no effect)).

**Q.** And the “Herbicidal effect by soil treatment, R: persian speedwell” value [10]?
**A.** Its value is 3 (Herbicidal rate of 40% or more and less than 70%).

**Q.** What about the “Herbicidal effect by soil treatment, G: green foxtail” value [11] of the same compound?
**A.** Its value is 0 (Herbicidal rate of 5% or less (almost no effect)).

**Q.** What about the “herbicidal effect on J: blackgrass (evaluation grade 0-5)” value [12] of the same compound?
**A.** Its value is 4 (Herbicidal rate of 70% or more and less than 90%).

**Q.** What about the “herbicidal effect on rice flat sedge (E)” value [13] of the same compound?
**A.** Its value is 5 (Herbicidal rate of 90% or more (almost completely withered)).

**Q.** And the “herbicidal effect on R: persian speedwell (evaluation grade 0-5)” value [14]?
**A.** The value was 5 (Herbicidal rate of 90% or more (almost completely withered)).

**Q.** And the “Herbicidal effect by soil treatment, M: velvetleaf” value [15]?
**A.** Its value is 0 (Herbicidal rate of 5% or less (almost no effect)).

**Q.** And the “herbicidal effect on H: barnyard grass (evaluation grade 0-5)” value [16]?
**A.** The value was 4 (Herbicidal rate of 70% or more and less than 90%).

**Q.** What about the “Herbicidal effect, A: late watergrass” value [17] of the same compound?
**A.** Its value is 3 (Herbicidal rate of 40% or more and less than 70%).

**Q.** What about the “Herbicidal effect by soil treatment, J: blackgrass” value [18] of the same compound?
**A.** The value was 3 (Herbicidal rate of 40% or more and less than 70%).

**Q.** And the “Herbicidal effect by soil treatment, O: lambsquarters” value [19]?
**A.** The value was 0 (Herbicidal rate of 5% or less (almost no effect)).

**Q.** What about the “Herbicidal effect by soil treatment, L: windgrass” value [20] of the same compound?
**A.** The value was 0 (Herbicidal rate of 5% or less (almost no effect)).

**Q.** What about the “herbicidal effect on L: windgrass (evaluation grade 0-5)” value [21] of the same compound?
**A.** The value was 2 (Herbicidal rate of 20% or more and less than 40%).

**Q.** What about the “herbicidal effect on M: velvetleaf (evaluation grade 0-5)” value [22] of the same compound?
**A.** The value was 3 (Herbicidal rate of 40% or more and less than 70%).

**Q.** What about the “herbicidal effect on barnyard grass (H)” value [23] of the same compound?
**A.** The value was 5 (Herbicidal rate of 90% or more (almost completely withered)).

**Q.** What about the “herbicidal effect on Chinese sprangletop (D)” value [24] of the same compound?
**A.** Its value is 3 (Herbicidal rate of 40% or more and less than 70%).

**Q.** And the “Herbicidal effect by soil treatment, P: chickweed” value [25]?
**A.** The value was 3 (Herbicidal rate of 40% or more and less than 70%).

**Q.** And the “Herbicidal effect, B: Japanese bulrush” value [26]?
**A.** The value was 0 (Herbicidal rate of 5% or less (almost no effect)).

**Q.** And the “Herbicidal effect by soil treatment, I: wild oat” value [27]?
**A.** Its value is 0 (Herbicidal rate of 5% or less (almost no effect)).

**Q.** And the “herbicidal effect on O: lambsquarters (evaluation grade 0-5)” value [28]?
**A.** Its value is 1 (Herbicidal rate of 5% or more and less than 20%).

**Q.** What about the “herbicidal effect on P: chickweed (evaluation grade 0-5)” value [29] of the same compound?
**A.** The value was 5 (Herbicidal rate of 90% or more (almost completely withered)).

**Q.** What about the “Herbicidal effect by soil treatment, H: barnyard grass” value [30] of the same compound?
**A.** The value was 0 (Herbicidal rate of 5% or less (almost no effect)).
